From patent US20250351832A1, “PHYTOCHEMICALS AS BIOPESTICIDES AND BIOSTIMULANTS” (KAY BEE BIO ORGANICS PVT. LTD., priority 2024, published 2025)
Read-outs that look alike come from different tables or passages of the source.

Experiments:
[1] = system: Aphid; assay: whole plant or invertebrate; conditions: 48 h
[2] = system: Helicoverpa armigera; conditions: Helicoverpa armigera 3rd instar on chickpea plants, dose 1 ml/gm/lit. spray
[3] = system: Spodoptera litura; assay: whole plant or invertebrate; conditions: 72 h
[4] = system: Mite; conditions: Dose 1 ml/gm/lit.; 48 hrs
[5] = system: Alternaria alternata; assay: In vitro poisoned food technique against fungus (Ex. 20); type: cell-based; conditions: […]
[6] = system: Spodoptera litura; conditions: 72 h, 1 mL or g/L
[7] = system: Helicoverpa armigera; conditions: Helicoverpa armigera on okra fruits, dose 1 ml/gm/lit., 72 Hrs.
[8] = system: tomato seedlings; assay: Response of tomato plants, greenhouse growth (Ex. 30); type: in vivo
[9] = system: Mite; conditions: mite on okra plants, green house, dose 1 ml/gm/lit. spray
[10] = system: Thrips; conditions: 48 h, 1 mL or g/L
[11] = system: Aphid
[12] = system: chili seedlings; assay: Response of chili plants, greenhouse growth (Ex. 31); type: in vivo
[13] = system: Mealy Bug; conditions: Mealy Bug on cotton leaves, dose 1 ml/gm/lit., 48 Hrs.
[14] = system: Thrips; assay: whole plant or invertebrate; conditions: in Gossypium hirsutum, 48 h
[15] = system: Mealy Bug; conditions: mealy bug on cotton plants, green house, dose 1 ml/gm/lit. spray
[16] = system: Spodoptera litura; conditions: Spodoptera litura 3rd instar on cabbage plants, dose 1 ml/gm/lit. spray
[17] = system: Aphid; conditions: 48 h, 1 mL or g/L
[18] = system: Thrips
[19] = Table 13, effect on plants, descriptive; cited from earlier work
[20] = read-out: % Corrected Mortality at 48 Hrs.
[21] = read-out: % Mortality at 48 Hrs.
[22] = 72 hrs, corrected for water control
[23] = tomato seedlings, 10th day, dose 1 ml/gm/lit
[24] = tomato seedlings, dose 1 ml/gm/lit, 10th day
[25] = 48 hrs, corrected for water control
[26] = chili seedlings, dose 1 ml/gm/lit, 10th day

## C=C1C2CCC(C2)C1(C)C (centres unmarked) [Camphene, camphene]
[1]; [20]
  mortality at 1 mL or g/L: 41.2%
[1]; [21]
  mortality at 1 mL or g/L: 50%
[2]; 72 hrs after application
  % Mortality at 72 Hrs.: 60.00%
[2]; [22]
  % Corrected Mortality at 72 Hrs.: 60.00%
[3]; read-out: % Corrected Mortality at 72 Hrs.
  mortality at 1 mL or g/L: 65.8%
[3]; read-out: % Mortality at 72 Hrs.
  mortality at 1 mL or g/L: 67.5%
[4]
  % Corrected Mortality at 48 Hrs.: 35.14%
  % Mortality at 48 Hrs.: 40.00%
[5]
  inhibition of growth at 1 mL or g/L: 18.8%
[6]
  Total No. of dead insect at 72 Hrs.: 6.75
[7]
  % Mortality at 72 Hrs.: 62.50%
[7]; corrected for water control
  % Corrected Mortality at 72 Hrs.: 62.50%
[8]
  CCI Pre: 11.85
  Plant Height Pre: 5.75 cm
  Stem Girth Pre: 1.29 mm
[8]; 120 h
  CCI 5th Day: 13.99
  Plant Height 5th Day: 6.82 cm
  Stem Girth 5th Day: 1.49 mm
[8]; 240 h
  CCI 10th Day: 14.95
  Plant Height 10th Day: 7.34 cm
  Root Length % Increase over control: 14.19%
  Stem Girth 10th Day: 2.07 mm
[8]; [23]
  Plant Height % Increase over pre on 10th Day: 27.65%
  Stem Girth % Increase over pre on 10th Day: 60.47%
[8]; [24]
  CCI % Increase over pre on 10th Day: 26.16%
  Root Length (cm) 10th Day: 3.80 cm
[9]; 48 hrs after application
  % Mortality at 48 Hrs.: 40.00%
[9]; [25]
  % Corrected Mortality at 48 Hrs.: 36.84%
[10]
  Total No. of dead insect at 48 Hrs.: 5.25
[11]; 48 h
  Total No. of dead insect at 48 Hrs.: 5.25
[11]; Dose 1 ml/gm/lit., 48 hrs
  % Corrected Mortality at 48 Hrs.: 45.71%
  % Mortality at 48 Hrs.: 52.50%
[12]
  CCI Pre: 9.35
  Plant Height (cm) Pre: 3.94 cm
[12]; 120 h
  CCI 5th Day: 10.40
  Plant Height (cm) 5th Day: 5.97 cm
[12]; 240 h
  CCI 10th Day: 12.02
  Plant Height (cm) 10th Day: 6.21 cm
  Root Lenght % Increase over control: 27.80%
[12]; [26]
  CCI % Increase over pre on 10th Day: 28.56%
  Plant Height % Increase over pre on 10th Day: 57.61%
  Root Lenght (cm) 10th Day: 3.50 cm
  Stem Girth % Increase over pre on 10th Day: 43.80%
[13]
  % Mortality at 48 Hrs.: 45.00%
[13]; corrected for water control
  % Corrected Mortality at 48 Hrs.: 42.11%
[14]; [20]
  mortality at 1 mL or g/L: 45.7%
[14]; [21]
  mortality at 1 mL or g/L: 52.5%
[15]; 48 hrs after application
  % Mortality at 48 Hrs.: 52.50%
[15]; [25]
  % Corrected Mortality at 48 Hrs.: 47.22%
[16]; 72 hrs after application
  % Mortality at 72 Hrs.: 65.00%
[16]; [22]
  % Corrected Mortality at 72 Hrs.: 63.16%
[17]
  Total No. of dead insect at 48 Hrs.: 50.00
[18]; 48 h
  Total No. of dead insect at 48 Hrs.: 50.00
[18]; thrips on cotton plants, greenhouse, dose 1 ml/gm/lit. spray, 48 hrs after application
  % Mortality at 48 Hrs.: 50.00%
[18]; thrips on cotton plants, greenhouse, dose 1 ml/gm/lit. spray, 48 hrs, corrected for water control
  % Corrected Mortality at 48 Hrs.: 44.44%
[19]
  Phytotonic Effect: Trigger the nutrition
